Assays:
peptide-pulsed T2 cells [1] = assay: IFN-gamma ELISA assay of established CTL lines and CTL clone; format: cell-based, human; settings: for IFN-gamma production of CTL lines: CTL line established with the peptide, target cells pulsed with corresponding peptide vs without peptide pulse
Method: CTLs were expanded in culture using the method similar to the one described by Riddell et al. (Walter E A et al., N Engl J Med 1995 Oct. 19, 333(16): 1038-44; Riddell S R et al., Nat Med 1996 February, 2(2): 216-23). A total of 5×10^4 CTLs were resuspended in 25 ml of AIM-V/5% AS medium with 2 kinds of human B-lymphoblastoid cell lines, inactivated by Mitomycin C, in the presence of 40 ng/ml of anti-CD3 monoclonal antibody (Pharmingen). One day after initiating the cultures, 120 IU/ml of IL-2 were added to the cultures. The cultures were fed with fresh AIM-V/5% AS medium containing 30 IU/ml of IL-2 on days 5, 8 and 11 (Tanaka H et al., Br J Cancer 2001 Jan. 5, 84(1): 94-9; Umano Y et al., Br J Cancer 2001 Apr. 20, 84(8): 1052-7; Uchida N et al., Clin Cancer Res 2004 Dec. 15, 10(24): 8577-86; Suda T et al., Cancer Sci 2006 May, 97(5): 411-9; Watanabe T et al., Cancer Sci 2005 August, 96(8): 498-506).
The dilutions were made to have 0.3, 1, and 3 CTLs/well in 96 round-bottomed micro titer plate (Nalge Nunc International). CTLs were cultured with 1×10^4 cells/well of 2 kinds of human B-lymphoblastoid cell lines, 30 ng/ml of anti-CD3 antibody, and 125 U/ml of IL-2 in a total of 150 micro-l/well of AIM-V Medium containing 5% AS. 50 micro-1/well of IL-2 were added to the medium 10 days later so to reach a final concentration of 125 U/ml IL-2. CTL activity was tested on the 14th day, and CTL clone was expanded using the same method as described above (Uchida N et al., Clin Cancer Res 2004 Dec. 15, 10(24): 8577-86; Suda T et al., Cancer Sci 2006 May, 97(5): 411-9; Watanabe T et al., Cancer Sci 2005 August, 96(8): 498-506).
(§1) Specifically, peptide-pulsed T2 (1×10^4/well) was prepared as stimulator cells. Cultured cells in 48 wells were used as responder cells. IFN-gamma ELISPOT assay and IFN-gamma ELISA assay were performed under manufacture procedure.

peptide-pulsed T2 cells [2] = assay: IFN-gamma ELISPOT assay on CTLs induced with TTK peptides; format: cell-based, human; settings: wells of CTLs stimulated with the peptide, against peptide-pulsed target cells compared to control wells
Source text: Monocyte-derived dendritic cells (DCs) were used as antigen-presenting cells (APCs) to induce cytotoxic T lymphocyte (CTL) responses against peptides presented on human leukocyte antigen (HLA). DCs were generated in vitro as described elsewhere (Nakahara S et al., Cancer Res 2003 Jul. 15, 63(14): 4112-8). Specifically, peripheral blood mononuclear cells (PBMCs) isolated from a normal volunteer (HLA-A*0201 positive) by Ficoll-Plaque (Pharmacia) solution were separated by adherence to a plastic tissue culture dish (Becton Dickinson) so as to enrich them as the monocyte fraction. The monocyte-enriched population was cultured in the presence of 1,000 U/ml of granulocyte-macrophage colony-stimulating factor (GM-CSF) (R&D System) and 1,000 U/ml of interleukin (IL)-4 (R&D System) in AIM-V Medium (Invitrogen) containing 2% heat-inactivated autologous serum (AS). After 7 days of culture, the cytokine-induced DCs were pulsed with 20 micro-g/ml of each of the synthesized peptides in the presence of 3 micro-g/ml of beta 2-microglobulin for 3 hrs at 37 degrees C. in AIM-V Medium. The generated cells appeared to express DC-associated molecules, such as CD80, CD83, CD86 and HLA class II, on their cell surfaces (data not shown). These peptide-pulsed DCs were then inactivated by X-irradiation (20 Gy) and mixed at a 1:20 ratio with autologous CD8+ T cells, obtained by positive selection with CD8 Positive Isolation Kit (Dynal). These cultures were set up in 48-well plates (Corning); each well contained 1.5×10^4 peptide-pulsed DCs, 3×10^5 CD8+ T cells and 10 ng/ml of IL-7 (R&D System) in 0.5 ml of AIM-V/2% AS medium. Three days later, these cultures were supplemented with IL-2 (CHIRON) to a final concentration of 20 IU/ml. On days 7 and 14, the T cells were further stimulated with the autologous peptide-pulsed DCs. The DCs were prepared each time by the same way described above. CTL was tested against peptide-pulsed T2 cells after the 3rd round of peptide stimulation on day 21 (Tanaka H et al., Br J Cancer 2001 Jan. 5, 84(1): 94-9; Umano Y et al., Br J Cancer 2001 Apr. 20, 84(8): 1052-7; Uchida N et al., Clin Cancer Res 2004 Dec. 15, 10(24): 8577-86; Suda T et al., Cancer Sci 2006 May, 97(5): 411-9; Watanabe T et al., Cancer Sci 2005 August, 96(8): 498-506).
as §1

[3] = system: COS7 transfected with both the full length TTK gene and the HLA-A*0201 molecule; settings: results of WO2008/102557 duplicated as FIG. 4; cited from earlier work
PC3 cells = assay: Specific CTL activity against HLA-A2 negative, TTK positive control tumor cell line PC-3; format: cell-based, human
Source text: (§2) T2 (HLA-A2), human B-lymphoblastoid cell line and COST, African green monkey kidney cell line, were purchased from ATCC. HLA-A2 positive and TTK positive tumor cell line, H1650, was purchased from ATCC. HLA-A2 negative and TTK positive cell lines, PC-3 and TE-1, were purchased from JCRB Cell bank and RIKEN Cell Bank, respectively.
(§3) The established CTL lines and clones raised against each peptide were examined for the ability to recognize target cells that express TTK and HLA-A*0201 molecule. […] COS7 cells transfected with either full length of TTK genes or HLA-A*0201 were prepared as controls. […] And then this peptide-HLA complex was recognized by the CTLs.

[4] = system: COS7 cells transfected with both the full length of TTK and HLA-A*0201 gene; assay: Specific CTL activity against target cells expressing TTK and HLA-A*0201; format: cell-based, African green monkey
Source text: (§4) The cDNA encoding an open reading frame of target genes or HLA-A*0201 was amplified by PCR. The PCR-amplified products were cloned into a vector. The plasmids were transfected into COS7, which is the target genes and HLA-A*0201-negative cell line, using lipofectamine 2000 (Invitrogen) according to the manufacturer's recommended procedures. After 2 days from transfection, the transfected cells were harvested with versene (Invitrogen) and used as the target cells (5×10^4 cells/well) for CTL activity assay.
as §3

[5] = system: COS7 cells transfected with either full length of TTK genes or HLA-A*0201; assay: Specific CTL activity against control COS7 transfectants; format: cell-based, African green monkey; settings: CTL line and clone; COS7 expressing either TTK or HLA-A*0201 only
Source text: as §4, §3

TE1 cells = assay: Specific CTL activity against HLA-A2 negative, TTK positive control tumor cell line TE-1; format: cell-based, human
Source text: as §2, §3

H1650 cells = assay: Specific CTL activity against HLA-A2 positive, TTK positive tumor cell line; format: cell-based, human; settings: FIG. 3c
Source text: as §2, §3

TTK-A02-9-142: 9-mer HLA-A*0201 binding candidate peptide derived from TTK, SEQ ID NO: 15 (FAFVHISFA)
IFN-gamma production of CTL lines (peptide-pulsed T2 cells [1]): potent IFN-gamma production
IFN-gamma production of peptide-induced CTLs (peptide specific CTL activity) (peptide-pulsed T2 cells [2]): potent IFN-gamm production

TTK-A02-9-146: 9-mer HLA-A*0201 binding candidate peptide derived from TTK, SEQ ID NO: 19 (HISFAQFEL)
IFN-gamma production of peptide-induced CTLs (peptide specific CTL activity) (peptide-pulsed T2 cells [2]): potent IFN-gamm production

TTK-A02-9-462: 9-mer HLA-A*0201 binding candidate peptide derived from TTK, SEQ ID NO: 1 (YMSCFRTPV)
IFN-gamma production of CTL lines (peptide-pulsed T2 cells [1]): potent IFN-gamma production
Specific CTL activity of CTL clones against COS7 transfected with both TTK and HLA-A*0201 [3]: specific CTL activity
IFN-gamma production of peptide-induced CTLs (peptide specific CTL activity) (peptide-pulsed T2 cells [2]): potent IFN-gamm production

TTK-A02-9-547: 9-mer peptide derived from TTK, SEQ ID NO: 5, disclosed in Applicants' WO2008/102557 (KQIYAIKYV)
Specific CTL activity of CTL clones against COS7 transfected with both TTK and HLA-A*0201 [3]: specific CTL activity

TTK-A02-9-564: 9-mer HLA-A*0201 binding candidate peptide derived from TTK, SEQ ID NO: 20 (TLDSYRNEI)
IFN-gamma production of peptide-induced CTLs (peptide specific CTL activity) (peptide-pulsed T2 cells [2]): potent IFN-gamm production

TTK-A02-9-593: nonapeptide derived from TTK, HLA-A2 restricted epitope peptide, SEQ ID NO: 3 (ITDQYIYMV)
IFN-gamma production of CTL clone (peptide-pulsed T2 cells [1]; CTL clone established by limiting dilution from the CTL line, target cells pulsed with peptide): Potent IFN-gamma productions
IFN-gamma production of CTL lines (peptide-pulsed T2 cells [1]): potent IFN-gamma production
Specific CTL activity of CTL clone against control tumor cells (PC3 cells): no significant specific CTL activity was detected
CTL activity of CTL clone against COS7 cells expressing both TTK and HLA-A*0201 ([4]; CTL clone stimulated with the peptide as effector cells (FIG. 3b)): potent CTL activity
CTL activity of CTL line against COS7 cells expressing both TTK and HLA-A*0201 ([4]; CTL line stimulated with the peptide as effector cells (FIG. 3a)): potent CTL activity
Increase in the IFN-gamma production compared to the peptides of WO2008/102557 ([4]; compared to TTK-A2-9-462, TTK-A02-9-547, TTK-A2-9-719 and TTK-A2-10-462 (FIG. 3 vs FIG. 4)): one or two orders of magnitude
Specific CTL activity against the controls [5]: no significant specific CTL activity was detected
Specific CTL activity of CTL clone against control tumor cells (TE1 cells): no significant specific CTL activity was detected
Specific CTL activity of CTL clone against tumor cell line endogenously expressing both TTK and HLA-A*0201 (H1650 cells): specific CTL activity
IFN-gamma production of peptide-induced CTLs (peptide specific CTL activity) (peptide-pulsed T2 cells [2]): potent IFN-gamm production

TTK-A02-9-630: 9-mer HLA-A*0201 binding candidate peptide derived from TTK, SEQ ID NO: 2 (NMLEAVHTI)
IFN-gamma production of CTL lines (peptide-pulsed T2 cells [1]): potent IFN-gamma production
IFN-gamma production of peptide-induced CTLs (peptide specific CTL activity) (peptide-pulsed T2 cells [2]): potent IFN-gamm production

TTK-A02-9-719: 9-mer HLA-A*0201 binding candidate peptide derived from TTK, SEQ ID NO: 6 (SLGCILYYM)
IFN-gamma production of CTL lines (peptide-pulsed T2 cells [1]): potent IFN-gamma production
Specific CTL activity of CTL clones against COS7 transfected with both TTK and HLA-A*0201 [3]: specific CTL activity
IFN-gamma production of peptide-induced CTLs (peptide specific CTL activity) (peptide-pulsed T2 cells [2]): potent IFN-gamm production

TTK-A02-10-462: 10-mer HLA-A*0201 binding candidate peptide derived from TTK, SEQ ID NO: 22 (YMSCFRTPVV)
IFN-gamma production of CTL lines (peptide-pulsed T2 cells [1]): potent IFN-gamma production
Specific CTL activity of CTL clones against COS7 transfected with both TTK and HLA-A*0201 [3]: specific CTL activity
IFN-gamma production of peptide-induced CTLs (peptide specific CTL activity) (peptide-pulsed T2 cells [2]): potent IFN-gamm production

TTK-A02-10-542: 10-mer HLA-A*0201 binding candidate peptide derived from TTK, SEQ ID NO: 34 (VLNEKKQIYA)
IFN-gamma production of peptide-induced CTLs (peptide specific CTL activity) (peptide-pulsed T2 cells [2]): potent IFN-gamm production

TTK-A02-10-661: 10-mer HLA-A*0201 binding candidate peptide derived from TTK, SEQ ID NO: 35 (KLIDFGIANQ)
IFN-gamma production of peptide-induced CTLs (peptide specific CTL activity) (peptide-pulsed T2 cells [2]): potent IFN-gamm production

— patent publication US8530430B2, “TTK peptides and vaccines including the same” (Oncotherapy Science, Inc., priority 2009, dated 2013)
